According to patent US6500815B1, “Substituted 11.beta steroid derivatives, method for preparing same and intermediates of said method, use as medicine and compositions containing them” (Aventis Pharma S.A., priority 1999, dated 2002):

Molecular target: αvβ3 human receptor (vitronectin receptor) (Homo sapiens, UniProt P05106+P06756)
Experiment: Competition binding test: displacement of the vitronectin/vitronectin receptor (αvβ3) bond
Conditions: human vitronectin coated at 2 μg/ml, 3 hours incubation at ambient temperature, 4B12-HRP antibody detection, OD 450 nm, read-out: Competition binding test Vn/VnR (αvβ3) IC50
Description: 1—Study by the Products of the Invention of the Bond Displacement: Vitronectin/Vitronectin Receptor (αvβ3) Protocol 96 well MaxiSorp plates are coated overnight at 4° C., with 100 μl of human vitronectin (cf Yatohgo et al. Cell., Structure and fraction 13: 281-292 (1988) at 2 μg/ml, (dilution in coating buffer).
The following day, the wells are emptied and the ligands (vitronectin) are then fixed (see fixation buffer) for 1 hour at ambient temperature under gentle agitation. The wells are washed six times (see washing buffer), then per well and in this order the following are added:
40 μl of incubation buffer, 10 μl of the diluted product to be tested, (the products are diluted in a 50/50 mixture of DMSO-H2O) 20 μl of αvβ3 human receptor (cf Pytela et al. Methods Enzymol (1987) 144:475) (dilution in incubation buffer, to be adapted according to the batch of receptor and according to the ligand).
The ligand, the αvβ3 human receptor and the products to be studied are incubated for 3 hours at ambient temperature under gentle agitation.
The wells are again washed six times, then incubated for 2 hours at ambient temperature under gentle agitation, in the presence of 100 μl of 4B12-HRP antibody, anti-receptor coupled to a peroxydase (the 4B12-HRP antibody is diluted in incubation buffer. The dilution is to be adapted according to the batch of receptor).
The wells are then washed six times before measurement of the ligand-receptor bond done by the intermediate of a peroxydase visualizing kit (TMP Microwell Peroxydase Substrate System Kirkegaard: Ref. cat. 50-76-00). This kit contains a flask A of substrate (3,3′,5,5′-tetra-methylbenzidine at 0.4 g/l) and a flask B (H2O2 at 0.02% in Citrate/Citric acid buffer). Extemporaneously, a volume of A is mixed with a volume of B, then the reaction mixture is distributed at a rate of 100 μl/wells. The enzymatic reaction develops in 12′ for Vitronectin/αvβ3, and then its evolution is stopped by the addition of 100 μl of 1M phosphoric acid.
The optical density is measured at 450 nm. […]
coating buffer: 0.05 M carbonate, NaOH pH 9.6 fixation buffer: PBS containing 0.5% of BSA (pH 7.4) washing buffer: PBS containing 0.05% of Tween 20 (pH 7.4)
Expression of the Results: the following curve is drawn: the bonding percentage of human vitronectin as a function of the logarithm of the concentration of each product tested. For each product the IC50 is determined according to the following formula:
BO=Maximum bond in the absence of any product
Bmin=Minimum bond in the presence of the highest concentration of the product.

| SMILES | IC50 [nM] |
| --- | --- |
| C[C@]12C[C@H](CCCCC(NC(=O)OCc3ccccc3)C(=O)O)C3=C4CCC(=NNC5=NCCN5)C=C4CC[C@H]3[C@@H]1CCC2=O (mixture of isomers) [Example 2, 3-[(4,5-Dihydro-1H-imidazol-2-yl)hydrazono]-17-oxo-α-[[(phenylmethoxy)carbonyl]amino]-estra-4,9-diene-11-beta-hexanoic Acid] | 30 |
| C[C@]12C[C@H](CCCCC(=O)O)C3=C4CCC(=NNC(=N)N)C=C4CC[C@H]3[C@@H]1CCC2=O (mixture of isomers) [Example 4, 3-[(Amino-iminomethyl)hydrazono]-17-oxoestra-4,9-dien-11-beta-pentanoic Acid] | 133 |
| C[C@]12C[C@H](CCCCCC(=O)O)C3=C4CCC(=NNC5=NCCCN5)C=C4CC[C@H]3[C@@H]1CCC2=O (mixture of isomers) [Example 6a 90/10, 3-[(1,4,5,6-Tetrahydro-2-pyrimidinyl)-hydrazono]-17-oxo-4,9-diene-11-beta-hexanoic Acid] | 20 |
| C[C@]12C[C@H](CCCCCC(=O)O)C3=C4CCC(=NNC5=NCCCN5)C=C4CC[C@H]3[C@@H]1CCC2=O (mixture of isomers) [Example 6b 60/40, 3-[(1,4,5,6-Tetrahydro-2-pyrimidinyl)-hydrazono]-17-oxo-4,9-diene-11-beta-hexanoic Acid] | 38 |
| C[C@]12C[C@H](CCCCCC(=O)O)C3=C4CCC(=NNC5=NCCN5)C=C4CC[C@H]3[C@@H]1CCC2=O (mixture of isomers) [Example 7, 3-[(4,5-Dihydro-1H-imidazol-2-yl)-hydrazono]-17-oxo-estra-4,9-diene-11-beta-hexanoic Acid] | 25 |
| CC12CC(CCCCC(NC(=O)OCc3ccccc3)C(=O)O)C3=C4CCC(=NNC5=NCCN5)C=C4CCC3C1CCC2O (stereo not drawn) [Example 3, 3-[(4,5-Dihydro-1H-imidazol-2-yl)hydrazono]-17-hydroxy-alpha.-[[(phenylmethoxy)carbonyl]amino]-estra-4,9-diene-11-beta-hexanoic Acid] | 70 |
| C[C@]12C[C@H](CCCCCC(=O)O)C3=C4CC/C(=N\NC(=N)N)C=C4CC[C@H]3[C@@H]1CCC2=O [Example 5a ΔE, 3-[(Amino-iminomethyl)hydrazono]-17-oxo-estra-4,9-diene-11-beta-hexanoic Acid] | 54 |
| C[C@]12C[C@H](CCCCCC(=O)O)C3=C4CC/C(=N/NC(=N)N)C=C4CC[C@H]3[C@@H]1CCC2=O [Example 5b ΔZ, 3-[(Amino-iminomethyl)hydrazono]-17-oxo-estra-4,9-diene-11-beta-hexanoic Acid] | 375 |
| C[C@]12C[C@H](CCCCCC(=O)O)C3=C4CCC(=NNC5=NCCN5)C(Cl)=C4CC[C@H]3[C@@H]1CCC2=O [Example 8, 4-Chloro-3-[(4,5-dihydro-1H-imidazol-2-yl)hydrazono]-17-oxo-estra-4,9-diene-11-beta-hexanoic Acid] | 17 |
| C[C@]12C[C@H](CCCCCC(=O)O)C3=C4CCC(=NNC(=N)N)C(Cl)=C4CC[C@H]3[C@@H]1CCC2=O [Example 9, 3-[(Aminoiminomethyl)hydrazono]-4-chloro-17-oxo-estra-4,9-diene-11-beta-hexanoic Acid] | 1950 |
